The source made the active and inactive calls.

For data set [1], the target named is T1, Scavenger receptor class B member 1 (Mus musculus, UniProt Q61009).
T1 sequence (Q61009 whole entry): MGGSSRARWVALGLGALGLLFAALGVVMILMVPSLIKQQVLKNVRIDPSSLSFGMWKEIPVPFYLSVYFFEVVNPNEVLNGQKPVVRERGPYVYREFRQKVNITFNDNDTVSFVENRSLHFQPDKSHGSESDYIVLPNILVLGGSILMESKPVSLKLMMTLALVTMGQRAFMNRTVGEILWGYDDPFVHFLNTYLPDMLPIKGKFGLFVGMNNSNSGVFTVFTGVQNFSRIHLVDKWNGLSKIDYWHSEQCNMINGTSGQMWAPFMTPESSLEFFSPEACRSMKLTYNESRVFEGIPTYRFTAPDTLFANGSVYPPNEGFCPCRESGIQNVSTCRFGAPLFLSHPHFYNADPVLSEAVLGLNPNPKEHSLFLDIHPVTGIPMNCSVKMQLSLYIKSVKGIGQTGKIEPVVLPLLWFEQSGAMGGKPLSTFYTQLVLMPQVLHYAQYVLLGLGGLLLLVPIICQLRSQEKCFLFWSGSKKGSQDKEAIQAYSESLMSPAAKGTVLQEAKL
Briefly: inhibitors of SR-BI-mediated HDL uptake, dose response, cell-based, ldlA[mSR-BI] CHO, DiI fluorescence, dry powder, set 10 (AID 624029). Type of data set: functional.

In data set [2] the target is T1, Scavenger receptor class B member 1. Put plainly: inhibitors of SR-BI dependent HDL uptake, dose response, ldlA[mSR-BI] CHO cells, fluorescence plate reader, dry powder, set 9 (AID 623880). It is filed as functional, cell-based.
Data set [3] has as its target Tyrosine-protein phosphatase non-receptor type 5 (Homo sapiens, UniProt P54829). Put plainly: STEP phosphatase inhibitors, confirmation, biochemical, fluorescence intensity, uHTS hits (AID 602372). Type of data set: functional. The note with it: read-out: IC50_Mean.
Data set [4] deals with T2, Beta-2 adrenergic receptor (Homo sapiens, UniProt P07550). Briefly: Dose response for HTS for Beta-2AR agonists via FAP method from Powderset1. Type of data set: functional.
In data set [5] the target is Dual specificity protein phosphatase 3 (Homo sapiens, UniProt P51452). Briefly: VHR phosphatase inhibition, dose response, selectivity assay for STEP inhibitor project, biochemical (AID 602374). Type of data set: functional. The note with it: read-out: IC50_Mean.
Data set [6] has as its target T2, Beta-2 adrenergic receptor. Briefly: beta2AR agonists driving receptor internalization, dose response, cell-based, FAP fluorogen, flow cytometry, cherry pick 1 (AID 588763). It is filed as functional.
Data set [7] has as its target T3, Tyrosine-protein phosphatase non-receptor type 7 (Homo sapiens, UniProt P35236).
T3 sequence (P35236 whole entry): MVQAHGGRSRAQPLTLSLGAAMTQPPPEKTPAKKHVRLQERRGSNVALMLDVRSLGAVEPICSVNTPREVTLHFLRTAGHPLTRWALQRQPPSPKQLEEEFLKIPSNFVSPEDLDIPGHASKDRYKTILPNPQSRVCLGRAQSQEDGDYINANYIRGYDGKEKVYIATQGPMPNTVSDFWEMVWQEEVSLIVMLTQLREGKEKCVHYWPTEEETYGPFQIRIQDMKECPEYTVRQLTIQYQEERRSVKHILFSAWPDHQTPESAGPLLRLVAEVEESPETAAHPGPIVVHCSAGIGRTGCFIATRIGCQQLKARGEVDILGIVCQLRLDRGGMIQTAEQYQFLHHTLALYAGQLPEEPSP
Put plainly: inhibitors of human HePTP phosphatase, […], biochemical, absorbance, leukemia target (AID 521). It is filed as functional.

Data set [8] concerns the target Tyrosine-protein phosphatase non-receptor type 11 (Homo sapiens, UniProt Q06124). Briefly: SHP2 phosphatase inhibition, dose response, selectivity assay for STEP inhibitor project, biochemical (AID 602367). Type of data set: functional. The note with it: read-out: IC50_Mean.
The next data set deals with Cytochrome P450 2C9 (Homo sapiens, UniProt P11712).
In data set [9] the target is Protein-tyrosine kinase 2-beta (Homo sapiens, UniProt Q14289).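 Further: potency of inhibitors of PYK2 kinase phosphorylation of poly-GT substrate.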
For data set [10], the target named is Arf-GAP with SH3 domain, ANK repeat and PH domain-containing protein 1 (Homo sapiens, UniProt Q9ULH1). Type of data set: functional.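 Further: biochemical fluorescence polarization dose–response screen measuring inhibition of ASAP1; ASAP1 GAP domain stimulating GTP hydrolysis by truncated human ARF1.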
In data set [11] the test system is BJ. Put plainly: cytotoxicity toward BJ-TERT-LT-ST fibroblasts, dose response, cell-based, RAS-independent, luminescence (AID 1935).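 Further: BJ fibroblasts immortalized with TERT plus LT and ST oncogenes.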 Type of data set: functional. The note with it: Homo sapiens.
Data set [12] deals with BJ. Put plainly: cytotoxicity toward BJ-TERT fibroblasts, dose response, cell-based, RAS-independent, luminescence (AID 1933). Type of data set: functional. The following applies: Homo sapiens.
The next data set addresses Paired box protein Pax-8 (Homo sapiens, UniProt Q06710). Put plainly: inhibitors of PAX8-driven TPO luciferase reporter, dose response, RMG-I cells, cherry-pick (AID 687027).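 Further: luciferase reporter driven by Pax8 target thyroperoxidase promoter measured by SteadyGlo luminescence.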 It is filed as functional, cell-based. In general terms: In a reporter assay the amount or activity of a reporter protein is the signal.
The target in data set [13] is Nuclear receptor subfamily 0 group B member 1 (Homo sapiens, UniProt P51843). It is filed as functional, cell-based.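 Further: HEK293T cells transfected with SF-1 and DAX-1 plus StAR promoter luciferase reporter.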
In data set [14] the test system is BJ. Briefly: cells. It is filed as functional, cell-based. The following applies: Homo sapiens.
The nature of data set [15]: cytotoxicity toward DRD oncogenic fibroblasts, dose response, cell-based, non-viral oncogenic, luminescence (AID 1934). Type of data set: functional. The note with it: Homo sapiens.
The next data set is described as follows: cells. It is filed as functional, cell-based.
Another data set concerns HepG2. Briefly: HepG2 Cytotoxicity Assay Measured in Cell-Based System Using Plate Reader - 7071-02_Inhibitor_Dose_CherryPick_Activity. It is filed as functional. The note with it: Homo sapiens.
The test system of a further data set is Cryptococcus neoformans. Put plainly: PubChem AID 686997. Type of data set: functional, organism-based.
In another data set the test system is HeLa. Put plainly: HeLa cell cytotoxicity, dose response, cytotoxicity control, ATP luminescence, cherry-pick samples (AID 687004). It is filed as functional, cell-based. The note with it: Homo sapiens.

T2 sequence (P07550 whole entry): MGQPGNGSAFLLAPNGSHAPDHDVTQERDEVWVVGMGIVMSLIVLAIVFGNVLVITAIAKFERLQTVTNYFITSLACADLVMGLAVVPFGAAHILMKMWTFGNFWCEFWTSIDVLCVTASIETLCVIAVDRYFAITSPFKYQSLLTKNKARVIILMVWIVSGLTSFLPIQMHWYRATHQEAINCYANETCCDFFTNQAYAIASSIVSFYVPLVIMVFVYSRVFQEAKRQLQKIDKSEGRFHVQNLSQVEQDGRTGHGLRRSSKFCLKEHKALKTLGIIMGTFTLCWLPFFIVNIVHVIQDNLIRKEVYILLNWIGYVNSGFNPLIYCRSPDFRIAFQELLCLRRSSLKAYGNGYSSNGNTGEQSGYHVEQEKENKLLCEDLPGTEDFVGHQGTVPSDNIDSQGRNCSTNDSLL
Chain of Paired box protein Pax-8 (Q06710 whole entry): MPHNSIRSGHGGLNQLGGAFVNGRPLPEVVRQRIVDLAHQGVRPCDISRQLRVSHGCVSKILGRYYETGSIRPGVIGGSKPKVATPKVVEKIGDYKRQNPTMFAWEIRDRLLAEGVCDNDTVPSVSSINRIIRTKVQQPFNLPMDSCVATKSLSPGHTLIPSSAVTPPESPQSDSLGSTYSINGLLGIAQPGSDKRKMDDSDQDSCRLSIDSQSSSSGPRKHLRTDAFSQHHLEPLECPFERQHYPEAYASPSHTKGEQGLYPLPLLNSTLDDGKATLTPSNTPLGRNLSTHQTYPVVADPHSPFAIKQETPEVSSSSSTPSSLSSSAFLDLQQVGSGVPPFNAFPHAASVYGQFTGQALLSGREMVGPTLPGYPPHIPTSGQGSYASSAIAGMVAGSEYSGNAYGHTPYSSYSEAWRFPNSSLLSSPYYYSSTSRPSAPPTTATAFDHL
Chain of Tyrosine-protein phosphatase non-receptor type 11 (Q06124 whole entry): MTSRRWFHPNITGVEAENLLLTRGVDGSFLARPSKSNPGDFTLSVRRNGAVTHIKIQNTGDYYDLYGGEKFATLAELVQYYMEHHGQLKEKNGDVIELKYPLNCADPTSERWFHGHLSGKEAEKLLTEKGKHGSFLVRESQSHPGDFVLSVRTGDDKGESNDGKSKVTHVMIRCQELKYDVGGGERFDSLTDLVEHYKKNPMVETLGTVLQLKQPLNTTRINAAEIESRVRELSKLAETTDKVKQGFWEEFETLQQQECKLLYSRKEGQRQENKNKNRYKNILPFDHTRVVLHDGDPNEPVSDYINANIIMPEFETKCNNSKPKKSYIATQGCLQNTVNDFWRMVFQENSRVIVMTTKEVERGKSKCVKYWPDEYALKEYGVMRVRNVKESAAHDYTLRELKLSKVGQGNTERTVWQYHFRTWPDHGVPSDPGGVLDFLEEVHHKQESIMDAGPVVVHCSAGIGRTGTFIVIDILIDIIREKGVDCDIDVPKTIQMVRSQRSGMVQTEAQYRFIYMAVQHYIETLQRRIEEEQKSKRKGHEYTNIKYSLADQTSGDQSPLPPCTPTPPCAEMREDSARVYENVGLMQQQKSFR
Chain of Arf-GAP with SH3 domain, ANK repeat and PH domain-containing protein 1 (Q9ULH1 whole entry, the tested form may be a part): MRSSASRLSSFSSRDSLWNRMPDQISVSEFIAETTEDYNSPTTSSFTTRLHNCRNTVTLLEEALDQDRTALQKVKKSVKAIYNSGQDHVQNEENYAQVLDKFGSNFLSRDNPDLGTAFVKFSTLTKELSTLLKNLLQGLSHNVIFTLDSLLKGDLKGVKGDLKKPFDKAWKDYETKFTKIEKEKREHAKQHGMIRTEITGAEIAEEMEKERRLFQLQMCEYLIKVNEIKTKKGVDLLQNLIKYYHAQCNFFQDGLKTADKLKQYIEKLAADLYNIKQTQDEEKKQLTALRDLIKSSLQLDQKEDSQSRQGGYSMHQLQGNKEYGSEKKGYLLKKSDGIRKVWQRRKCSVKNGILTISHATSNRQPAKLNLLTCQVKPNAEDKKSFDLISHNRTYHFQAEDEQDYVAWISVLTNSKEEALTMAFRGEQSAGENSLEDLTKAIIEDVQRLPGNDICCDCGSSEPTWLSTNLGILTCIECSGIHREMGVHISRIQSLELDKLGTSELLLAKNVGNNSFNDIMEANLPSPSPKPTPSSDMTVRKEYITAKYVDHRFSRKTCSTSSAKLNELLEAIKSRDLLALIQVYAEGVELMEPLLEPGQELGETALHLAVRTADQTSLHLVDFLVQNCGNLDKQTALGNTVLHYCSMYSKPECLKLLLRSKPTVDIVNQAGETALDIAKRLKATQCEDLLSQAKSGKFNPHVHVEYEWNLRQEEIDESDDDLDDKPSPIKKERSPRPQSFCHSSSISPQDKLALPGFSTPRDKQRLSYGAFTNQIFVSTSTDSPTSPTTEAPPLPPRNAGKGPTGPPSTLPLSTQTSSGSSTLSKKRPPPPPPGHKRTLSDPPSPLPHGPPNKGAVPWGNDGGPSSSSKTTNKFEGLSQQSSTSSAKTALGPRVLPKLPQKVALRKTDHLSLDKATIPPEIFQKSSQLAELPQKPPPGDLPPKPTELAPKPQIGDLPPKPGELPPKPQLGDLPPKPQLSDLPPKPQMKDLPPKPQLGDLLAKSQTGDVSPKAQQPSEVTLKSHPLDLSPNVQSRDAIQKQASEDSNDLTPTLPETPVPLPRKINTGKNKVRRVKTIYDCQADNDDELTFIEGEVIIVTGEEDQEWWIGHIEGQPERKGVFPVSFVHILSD
Chain of Tyrosine-protein phosphatase non-receptor type 5 (P54829 whole entry): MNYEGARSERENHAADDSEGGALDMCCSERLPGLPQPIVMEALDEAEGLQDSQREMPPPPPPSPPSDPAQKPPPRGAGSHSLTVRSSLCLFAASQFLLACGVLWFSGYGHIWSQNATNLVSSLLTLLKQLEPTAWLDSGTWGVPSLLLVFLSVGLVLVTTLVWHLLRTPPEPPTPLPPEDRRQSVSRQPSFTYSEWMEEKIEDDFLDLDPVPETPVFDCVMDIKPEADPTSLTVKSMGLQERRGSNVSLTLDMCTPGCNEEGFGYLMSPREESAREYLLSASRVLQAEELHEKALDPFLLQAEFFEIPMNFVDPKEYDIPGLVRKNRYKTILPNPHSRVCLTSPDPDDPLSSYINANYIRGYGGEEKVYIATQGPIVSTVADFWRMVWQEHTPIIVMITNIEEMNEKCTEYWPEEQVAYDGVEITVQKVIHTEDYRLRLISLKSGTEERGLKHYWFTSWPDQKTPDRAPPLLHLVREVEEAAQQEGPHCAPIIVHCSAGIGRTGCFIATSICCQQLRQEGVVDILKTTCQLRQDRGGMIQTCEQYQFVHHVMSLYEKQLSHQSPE
Chain of Cytochrome P450 2C9 (P11712 whole entry): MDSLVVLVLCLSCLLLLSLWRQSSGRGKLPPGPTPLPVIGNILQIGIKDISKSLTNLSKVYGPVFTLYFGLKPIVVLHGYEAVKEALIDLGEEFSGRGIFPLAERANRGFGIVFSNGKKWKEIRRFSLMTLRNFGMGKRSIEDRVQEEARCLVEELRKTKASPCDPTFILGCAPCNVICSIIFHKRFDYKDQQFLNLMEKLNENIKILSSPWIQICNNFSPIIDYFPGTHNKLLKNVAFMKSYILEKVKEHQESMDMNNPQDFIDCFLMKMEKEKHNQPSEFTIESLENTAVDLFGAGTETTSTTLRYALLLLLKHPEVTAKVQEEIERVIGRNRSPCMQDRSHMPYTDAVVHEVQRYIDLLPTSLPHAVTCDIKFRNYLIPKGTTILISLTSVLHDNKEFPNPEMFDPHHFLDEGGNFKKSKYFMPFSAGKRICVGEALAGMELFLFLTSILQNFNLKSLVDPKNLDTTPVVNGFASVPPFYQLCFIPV
Chain of Protein-tyrosine kinase 2-beta (Q14289 whole entry, the tested form may be a part): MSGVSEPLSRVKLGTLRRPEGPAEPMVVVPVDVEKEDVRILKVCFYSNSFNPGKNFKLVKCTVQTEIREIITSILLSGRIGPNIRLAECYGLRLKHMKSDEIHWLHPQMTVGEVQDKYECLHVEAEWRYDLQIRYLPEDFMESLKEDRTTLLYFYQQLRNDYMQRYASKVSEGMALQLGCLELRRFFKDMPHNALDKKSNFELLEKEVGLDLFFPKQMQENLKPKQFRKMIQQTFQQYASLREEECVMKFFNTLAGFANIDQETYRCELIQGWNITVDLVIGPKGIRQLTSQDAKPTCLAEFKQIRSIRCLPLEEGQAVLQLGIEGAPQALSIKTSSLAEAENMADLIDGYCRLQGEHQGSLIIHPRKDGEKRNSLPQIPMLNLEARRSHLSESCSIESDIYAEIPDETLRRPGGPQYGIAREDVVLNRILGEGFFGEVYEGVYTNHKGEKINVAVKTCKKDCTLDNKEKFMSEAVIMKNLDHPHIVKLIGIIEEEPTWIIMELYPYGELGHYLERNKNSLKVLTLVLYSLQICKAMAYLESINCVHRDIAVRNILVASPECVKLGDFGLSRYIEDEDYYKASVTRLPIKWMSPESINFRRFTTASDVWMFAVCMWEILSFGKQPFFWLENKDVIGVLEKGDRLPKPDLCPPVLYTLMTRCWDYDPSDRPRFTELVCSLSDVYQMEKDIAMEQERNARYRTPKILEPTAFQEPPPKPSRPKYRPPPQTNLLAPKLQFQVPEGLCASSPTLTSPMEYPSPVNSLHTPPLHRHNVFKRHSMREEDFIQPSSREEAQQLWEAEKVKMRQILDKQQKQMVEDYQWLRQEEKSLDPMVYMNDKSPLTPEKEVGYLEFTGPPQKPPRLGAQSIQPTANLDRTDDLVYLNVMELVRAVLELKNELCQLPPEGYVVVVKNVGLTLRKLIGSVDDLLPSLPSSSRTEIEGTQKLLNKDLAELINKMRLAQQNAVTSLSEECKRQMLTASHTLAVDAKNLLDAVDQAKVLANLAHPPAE
Chain of Dual specificity protein phosphatase 3 (P51452 whole entry): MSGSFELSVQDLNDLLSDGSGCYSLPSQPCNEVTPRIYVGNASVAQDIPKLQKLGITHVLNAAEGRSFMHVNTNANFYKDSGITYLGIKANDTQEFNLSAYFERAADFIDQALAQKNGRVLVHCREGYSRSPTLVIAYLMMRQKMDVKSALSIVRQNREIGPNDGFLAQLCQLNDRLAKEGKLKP

The term AC50 denotes the concentration giving half of the maximal activity seen. With `C[C@@H]1CN([C@H](C)CO)C(=O)c2cc(NC(=O)C3CCCCC3)ccc2O[C@H]1CN(C)S(=O)(=O)c1ccccc1Cl`, the half-maximal activity concentration (AC50) in data set [1] is 0.202 µM (active); in data set [2], 0.176 µM (active).
In general, EC50 refers to the concentration needed to bring the measured effect to its halfway point. For `CCc1ccc(OCC(=O)Nc2ccc(-c3nc4ccccc4o3)c(O)c2)cc1`, the IC50 in data set [3] is 3.98 µM (active); in [5], 0.767 µM (active); in data set [7], 5.28 µM (active); in [8], 0.368 µM (active); in [9], > 69.5 µM (not active). In addition, the 50% effective concentration (EC50) is 0.261 µM (active) in data set [4] and 0.476 µM (active) in [6]. For the same compound, on Cytochrome P450 2C9, the AC50 entry is reported as “inconclusive”.
As for `COc1ccc(-n2nnc3c(=O)n(CC(=O)Nc4ccc5c(c4)OCCO5)cnc32)cc1OC`, the IC50 in data set [10] is 11.8 µM (inactive).
`CCOC(=O)N1CCC(NC(=O)c2ccc3c(c2)N=C(C)c2c(C)ccc(C)c2S3)CC1`: the EC50 with BJ [11] was 1.43 µM (active); with BJ [12], 1.52 µM (active); with BJ [14], 29.3 µM (active); in [15] it was 1.12 µM (active). Moreover, at Paired box protein Pax-8, the half-maximal activity concentration (AC50) was 3.05 µM (active). Moreover, the IC50 (in data set [13]; in “cells”) was > 67.5 µM (inactive) in each case.
For `CCOC(=O)NC(=S)Nc1ccc(C(C)(C)C)cc1Br`, the AC50 in the data set on HepG2 was 18.1 µM (active); with Cryptococcus neoformans, > 70 µM (inactive); in the data set with HeLa, > 52 µM (inactive).

The record behind these values is ChEMBL document CHEMBL1201862, “PubChem BioAssay data set” (2004).
